# “Also recorded” adds a separate entry of the source.
# Test system: neural tube organoids
# Experiment: dorsal-ventral patterning of neural tube organoids at the gradient window of the microfluidic device
# Type: cell-based
# Details: for identity of neural tube organoid (PAX3/7 dorsal marker, OLIG2 ventral marker): D6 organoids exposed 18 hours; for spatial patterning of neural tube organoid (PAX3/7 dorsal marker, OLIG2 ventral marker): anti-parallel gradient 1.6 nM BMP4 (L)-500 nM SAG (R), 18 hours
# Description: In the present example, the organoid of interest was cultured in a Matrigel™ drop for six days then harvested, and the organoid was suspended in Matrigel™ and loaded into the culture chamber 130 and placed at the gradient window 150 via the loading channel 170. A small drop of N2B27 medium was placed in each of the first and second medium chambers or reservoirs 110, 120 for humidification, and the chip was incubated in a 5% CO2 and 37° C. incubator for 5 minutes to allow the Matrigel™ to polymerise. After incubation, the first and second chambers 110, 120 were filled with N2B27 medium supplemented with 1.6 nM of BMP4 as a dorsal morphogen and 500 nM of SAG as a ventral morphogen respectively, and residual air in the device was removed from the first and second air outlets 140-1, 140-2 to allow the morphogen-supplemented media to diffuse across the gradient window 150. The device containing the organoid was incubated in a 5% CO2 and 37° C. incubator for 18 hours.
# A neural tube organoid was placed in the gradient window of the device where a dorsal-ventral morphogen gradient has developed, using BMP4 as a dorsal morphogen and SAG as a ventral morphogen. PAX3/7 was used as a marker for dorsal fate neural tube cell and OLIG2 was used as a marker for ventral fate neural tube cell.
# As described above, the neural tube organoids from D6 were introduced in the microfluidic device and exposed to different morphogen gradients for 18 hours. All scale bars are 100 μm.
Molecule,"identity of neural tube organoid (PAX3/7 dorsal marker, OLIG2 ventral marker) (N2B27 (L)-500 nM SAG (R))","spatial patterning of neural tube organoid (PAX3/7 dorsal marker, OLIG2 ventral marker)","identity of neural tube organoid (PAX3/7 dorsal marker, OLIG2 ventral marker) (1.6 nM BMP4 (L)-N2B27 (R))"
CNC1CCC(N(Cc2cccc(-c3ccncc3)c2)C(=O)c2sc3ccccc3c2Cl)CC1 (stereo not shown) [SAG],dominant ventral identity expressing OLIG2,OLIG2 positive cells were biased towards the SAG source; also recorded: OLIG2 biased to right side,
"Bone Morphogenetic Protein 4 (protein, UniProt P12644 293-408, looked up, dorsalizing morphogen) Bone morphogenetic protein 4: SPKHHSQRARKKNKNCRRHSLYVDFSDVGWNDWIVAPPGYQAFYCHGDCPFPLADHLNSTNHAIVQTLVNSVNSSIPKACCVPTELSAISMLYLDEYDKVVLKNYQEMVVEGCGCR",,PAX3/7 positive cells were biased towards the BMP4 source; also recorded: PAX3/7 biased to the left side,dorsal identity expressing PAX3/7

# — patent US20250034498A1, “MICROFLUIDIC DEVICES” (Ecole Polytechnique Federale de Lausanne, priority 2021, published 2025)
